Patent US20070142392A1, “Uses of rifamycins” (ActivBiotics, Inc., priority 2005, published 2007)
Converted amounts (≈) assume the structure as drawn.

Key:
Assay type in all cases: cell-based
E. faecalis = assay: MIC values, E. faecalis (Tables 1-4)
E. coli = assay: MIC values, E. coli (Tables 1-4)
H. flu = system: H. flu
S. aureus = assay: MIC values, S. aureus (Tables 1-4)
S. pneumo. = assay: MIC values, S. pneumo. (Tables 1-4)

Structure (SMILES) | MIC E. faecalis (E. faecalis) [µg/mL] | MIC E. coli (E. coli) [µg/mL] | MIC H. flu (H. flu) [µg/mL] | MIC S. aureus (S. aureus) [µg/mL] | MIC S. pneumo. (S. pneumo.) [µg/mL]
COCCN1CCN(c2cc(O)c3nc4c5c6c7c(C)c(O)c5c(=O)c(c-4oc3c2)NC(=O)/C(C)=C\C=C\[C@H](C)[C@H](O)[C@@H](C)[C@@H](O)[C@@H](C)[C@H](O)[C@H](C)[C@@H](OC)/C=C/O[C@@](C)(O7)C6=O)CC1 [Compound 92] | 0.12 (≈ 0.133 µM) | 8 (≈ 8.88 µM) | 0.25 (≈ 0.277 µM) | 0.004 (≈ 0.00444 µM) | 0.00025 (≈ 0.000277 µM)
CC[C@H]1CN(c2cc(O)c3nc4c5c6c7c(C)c(O)c5c(=O)c(c-4oc3c2)NC(=O)/C(C)=C\C=C\[C@H](C)[C@H](O)[C@@H](C)[C@@H](O)[C@@H](C)[C@H](O)[C@H](C)[C@@H](OC)/C=C/O[C@@](C)(O7)C6=O)C[C@H](C)N1 [Compound 93] | 0.5 (≈ 0.565 µM) | 4 (≈ 4.52 µM) | 0.25 (≈ 0.282 µM) | 0.004 (≈ 0.00452 µM) | 0.00012 (≈ 0.000136 µM)
CCOc1c(N2CCN(CC)CC2)ccc2nc3c4c5c6c(C)c(O)c4c(=O)c(c-3oc12)NC(=O)/C(C)=C\C=C\[C@H](C)[C@H](O)[C@@H](C)[C@@H](O)[C@@H](C)[C@H](O)[C@H](C)[C@@H](OC)/C=C/O[C@@](C)(O6)C5=O [Compound 94] | 0.5 (≈ 0.556 µM) | 8 (≈ 8.9 µM) | 0.25 (≈ 0.278 µM) | 0.008 (≈ 0.0089 µM) | 0.0005 (≈ 0.000556 µM)
CCOc1c(N2CCN(CCOC)CC2)cc(N2CCN(CCOC)CC2)c2nc3c4c5c6c(C)c(O)c4c(=O)c(c-3oc12)NC(=O)/C(C)=C\C=C\[C@H](C)[C@H](O)[C@@H](C)[C@@H](O)[C@@H](C)[C@H](O)[C@H](C)[C@@H](OC)/C=C/O[C@@](C)(O6)C5=O [Compound 95] | 8 (≈ 7.47 µM) | >8 | 2 (≈ 1.87 µM) | 0.12 (≈ 0.112 µM) | 0.001 (≈ 0.000933 µM)
CCOc1c(N2CCN(CCOC)CC2)ccc2nc3c4c5c6c(C)c(O)c4c(=O)c(c-3oc12)NC(=O)/C(C)=C\C=C\[C@H](C)[C@H](O)[C@@H](C)[C@@H](O)[C@@H](C)[C@H](O)[C@H](C)[C@@H](OC)/C=C/O[C@@](C)(O6)C5=O [Compound 96] | 1 (≈ 1.08 µM) | >8 | 0.5 (≈ 0.538 µM) | 0.015 (≈ 0.0161 µM) | 0.005 (≈ 0.00538 µM)
CO[C@H]1/C=C/O[C@@]2(C)Oc3c(C)c(O)c4c(=O)c(c5oc6cc(N7CCN(C8CCN(C)CC8)CC7)cc(O)c6nc-5c4c3C2=O)NC(=O)/C(C)=C\C=C\[C@H](C)[C@H](O)[C@@H](C)[C@@H](O)[C@@H](C)[C@H](O)[C@@H]1C [Compound 98] | 0.5 (≈ 0.532 µM) | >8 | 1 (≈ 1.06 µM) | 0.015 (≈ 0.016 µM) | 0.002 (≈ 0.00213 µM)
CO[C@H]1/C=C/O[C@@]2(C)Oc3c(C)c(O)c4c(=O)c(c5oc6cc(N7CCN(CC8CC8)CC7)cc(O)c6nc-5c4c3C2=O)NC(=O)/C(C)=C\C=C\[C@H](C)[C@H](O)[C@@H](C)[C@@H](O)[C@@H](C)[C@H](O)[C@@H]1C [Compound 99] | 0.06 (≈ 0.0669 µM) | 2 (≈ 2.23 µM) | 0.25 (≈ 0.279 µM) | 0.008 (≈ 0.00892 µM) | 0.0005 (≈ 0.000557 µM)
COC1C=COC2(C)Oc3c(C)c(O)c4c(=O)c(c5oc6cc(N7CC(C)NCC7C)cc(O)c6nc-5c4c3C2=O)NC(=O)C(C)=CC=CC(C)C(O)C(C)C(O)C(C)C(O)C1C (stereo not shown) [Compound 100] | 0.12 (≈ 0.138 µM) | 4 (≈ 4.59 µM) | 0.25 (≈ 0.287 µM) | 0.004 (≈ 0.00459 µM) | 0.0005 (≈ 0.000574 µM)
CO[C@H]1/C=C/O[C@@]2(C)Oc3c(C)c(O)c4c(=O)c(c5oc6cc(N7CCN(CCO)CC7)cc(O)c6nc-5c4c3C2=O)NC(=O)/C(C)=C\C=C\[C@H](C)[C@H](O)[C@@H](C)[C@@H](O)[C@@H](C)[C@H](O)[C@@H]1C [Compound 101] | 0.12 (≈ 0.135 µM) | 8 (≈ 9.02 µM) | 0.25 (≈ 0.282 µM) | 0.008 (≈ 0.00902 µM) | 0.0005 (≈ 0.000564 µM)
CO[C@H]1/C=C/O[C@@]2(C)Oc3c(C)c(O)c4c(=O)c(c5oc6cc(N7CCN(CCN(C)C)CC7)cc(O)c6nc-5c4c3C2=O)NC(=O)/C(C)=C\C=C\[C@H](C)[C@H](O)[C@@H](C)[C@@H](O)[C@@H](C)[C@H](O)[C@@H]1C [Compound 103] | 0.5 (≈ 0.547 µM) | >8 | 0.12 (≈ 0.131 µM) | 0.03 (≈ 0.0328 µM) | 0.008 (≈ 0.00875 µM)
CO[C@H]1/C=C/O[C@@]2(C)Oc3c(C)c(O)c4c(=O)c(c5sc6cc(N7CCN(C)CC7)ccc6nc-5c4c3C2=O)NC(=O)/C(C)=C\C=C\[C@H](C)[C@H](O)[C@@H](C)[C@@H](O)[C@@H](C)[C@H](O)[C@@H]1C [Compound 104] | 0.12 (≈ 0.14 µM) | 2 (≈ 2.33 µM) | 0.12 (≈ 0.14 µM) | 0.002 (≈ 0.00233 µM) | 0.00012 (≈ 0.00014 µM)
CO[C@H]1/C=C/O[C@@]2(C)Oc3c(C)c(O)c4c(=O)c(c5oc6cc(N7CCN(CCF)CC7)cc(O)c6nc-5c4c3C2=O)NC(=O)/C(C)=C\C=C\[C@H](C)[C@H](O)[C@@H](C)[C@@H](O)[C@@H](C)[C@H](O)[C@@H]1C [Compound 105] | 0.12 (≈ 0.135 µM) | 8 (≈ 9 µM) | 0.12 (≈ 0.135 µM) | 0.004 (≈ 0.0045 µM) | 0.001 (≈ 0.00112 µM)
CO[C@H]1/C=C/O[C@@]2(C)Oc3c(C)c(O)c4c(=O)c(c5oc6cc(N7CCN(c8ncccn8)CC7)cc(O)c6nc-5c4c3C2=O)NC(=O)/C(C)=C\C=C\[C@H](C)[C@H](O)[C@@H](C)[C@@H](O)[C@@H](C)[C@H](O)[C@@H]1C [Compound 106] | 0.25 (≈ 0.271 µM) | >8 | 0.12 (≈ 0.13 µM) | 0.004 (≈ 0.00434 µM) | 0.0005 (≈ 0.000543 µM)
CO[C@H]1/C=C/O[C@@]2(C)Oc3c(C)c(O)c4c(=O)c(c5oc6cc(N7CCNCC7)cc(O)c6nc-5c4c3C2=O)NC(=O)/C(C)=C\C=C\[C@H](C)[C@H](O)[C@@H](C)[C@@H](O)[C@@H](C)[C@H](O)[C@@H]1C [Compound 107] | 0.06 (≈ 0.0712 µM) | 4 (≈ 4.75 µM) | 0.12 (≈ 0.142 µM) | 0.008 (≈ 0.00949 µM) | 0.002 (≈ 0.00237 µM)
